# Reference: ChEMBL document CHEMBL5380777, “Efficacy, Mechanism, and Structure-Activity Relationship of 6-Methoxy Benzofuran Derivatives as a Useful Tool for Senile Osteoporosis” (J Med Chem, 2023)
# The source made the active and inactive calls. The calls are words filed in the database; no cut-off is given here.
# Tests used:
# [1] = species: Danio rerio; assay: Anti osteoporosis activity in prednisone induced wildtype 3 days post-fertilization AB zebrafish osteoporosis model assessed as increase in bone fluorescence intensity (RVB = 13620 +/- 1692); assay type: functional
# [2] = tested on: MC3T3-E1; assay: Induction of ALP activity in mouse MC3T3-E1 cells in osteogenic differentiation culture at 1 uM measured on day 7; assay type: functional, cell-based; details: time 7.0 day
# [3] = Half life in Sprague-Dawley rat by measuring metabolite 6-methoxybenzofuran-2-carboxylic acid at 10 mg/kg, po; assay type: ADME, organism-based; details: in vivo
# [4] = AUC (0 to t) in Sprague-Dawley rat by measuring metabolite 6-methoxybenzofuran-2-carboxylic acid at 2 mg/kg, iv; assay type: ADME, organism-based; set-up: dose 2 mg/kg, route iv; details: in vivo
# [5] = target: T1, Cytochrome P450 3A4 (Homo sapiens, UniProt P08684); assay: Inhibition of CYP3A4 (unknown origin) using midazolam as substrate (reference value: 0.0413 uM); assay type: ADME
# [6] = Cmax in Sprague-Dawley rat by measuring metabolite 6-methoxybenzofuran-2-carboxylic acid at 10 mg/kg, po; assay type: ADME, organism-based; set-up: dose 10 mg/kg, route po; details: in vivo
# [7] = Permeability from apical to basolateral side in human Caco-2 cells assessed as recovery incubated upto 95 mins by LC-MS/MS analysis relative control; assay type: ADME, cell-based; details: read-out: Drug recovery
# [8] = MRT (0 to infinity) in Sprague-Dawley rat by measuring metabolite 6-methoxybenzofuran-2-carboxylic acid at 10 mg/kg, po; assay type: ADME, organism-based; details: in vivo
# [9] = target: Cytochrome P450 2C19 (Homo sapiens, UniProt P33261); assay: Inhibition of CYP2C19 (unknown origin) using mephenytoin as substrate (reference value: 2.77 uM); assay type: ADME
# [10] = species: Danio rerio; assay: Anti osteoporosis activity in prednisone induced wildtype 3 days post-fertilization AB zebrafish osteoporosis model assessed as increase in bone fluorescence intensity; assay type: functional, organism-based; details: dose 0.078-1.25 µM
# [11] = Volume of distribution at steady state in Sprague-Dawley rat by measuring metabolite 6-methoxybenzofuran-2-carboxylic acid at 2 mg/kg, iv; assay type: ADME, organism-based; details: in vivo
# [12] = target: T2, hERG (KCNH2) (Homo sapiens, UniProt Q12809); assay: Inhibition of human ERG stably expressed in CHO cells at 10 uM by whole-cell patch clamp method relative to control; assay type: toxicity, cell-based; details: CHO cells stably expressing human ERG
# [13] = AUC (0 to infinity) in Sprague-Dawley rat by measuring metabolite 6-methoxybenzofuran-2-carboxylic acid at 2 mg/kg, iv; assay type: ADME, organism-based; set-up: dose 2 mg/kg, route iv; details: in vivo
# [14] = Apparent permeability from apical to basolateral side in human Caco-2 cells incubated upto 95 mins by LC-MS/MS analysis; assay type: ADME, cell-based; details: read-out: permeability
# [15] = target: T2, hERG (KCNH2); assay: Inhibition of human ERG stably expressed in CHO cells at 1 uM by whole-cell patch clamp method relative to control; assay type: toxicity, cell-based; details: CHO cells stably expressing human ERG
# [16] = target: T2, hERG (KCNH2); assay: Inhibition of human ERG stably expressed in CHO cells at 0.3 uM by whole-cell patch clamp method relative to control; assay type: toxicity, cell-based; details: CHO cells stably expressing human ERG
# [17] = AUC (0 to t) in Sprague-Dawley rat by measuring metabolite 6-methoxybenzofuran-2-carboxylic acid at 10 mg/kg, po; assay type: ADME, organism-based; set-up: dose 10 mg/kg, route po; details: in vivo
# [18] = Permeability from basolateral to apical side in human Caco-2 cells assessed as recovery incubated upto 95 mins by LC-MS/MS analysis relative control; assay type: ADME, cell-based; details: read-out: Drug recovery
# [19] = Cmax in Sprague-Dawley rat by measuring metabolite 6-methoxybenzofuran-2-carboxylic acid at 2 mg/kg, iv; assay type: ADME, organism-based; set-up: dose 2 mg/kg, route iv; details: in vivo
# [20] = Oral bioavailability in Sprague-Dawley rat by measuring metabolite 6-methoxybenzofuran-2-carboxylic acid at 10 mg/kg; assay type: ADME, organism-based; details: in vivo
# [21] = species: Danio rerio; assay: Anti osteoporosis activity in prednisone induced wildtype 3 days post-fertilization AB zebrafish osteoporosis model assessed as increase in bone mass at 1.25 uM relative to normal control group; assay type: functional, organism-based
# [22] = Apparent permeability from basolateral to apical side in human Caco-2 cells incubated upto 95 mins by LC-MS/MS analysis; assay type: ADME, cell-based; details: read-out: permeability
# [23] = target: T2, hERG (KCNH2); assay: Inhibition of human ERG stably expressed in CHO cells at 0.1 uM by whole-cell patch clamp method relative to control; assay type: toxicity, cell-based; details: CHO cells stably expressing human ERG
# [24] = target: T3, Cytochrome P450 1A2 (Homo sapiens, UniProt P05177); assay: Inhibition of CYP1A2 (unknown origin) using phenacetin as substrate (reference value: 0.0292 uM); assay type: ADME
# T3 sequence (P05177 whole entry): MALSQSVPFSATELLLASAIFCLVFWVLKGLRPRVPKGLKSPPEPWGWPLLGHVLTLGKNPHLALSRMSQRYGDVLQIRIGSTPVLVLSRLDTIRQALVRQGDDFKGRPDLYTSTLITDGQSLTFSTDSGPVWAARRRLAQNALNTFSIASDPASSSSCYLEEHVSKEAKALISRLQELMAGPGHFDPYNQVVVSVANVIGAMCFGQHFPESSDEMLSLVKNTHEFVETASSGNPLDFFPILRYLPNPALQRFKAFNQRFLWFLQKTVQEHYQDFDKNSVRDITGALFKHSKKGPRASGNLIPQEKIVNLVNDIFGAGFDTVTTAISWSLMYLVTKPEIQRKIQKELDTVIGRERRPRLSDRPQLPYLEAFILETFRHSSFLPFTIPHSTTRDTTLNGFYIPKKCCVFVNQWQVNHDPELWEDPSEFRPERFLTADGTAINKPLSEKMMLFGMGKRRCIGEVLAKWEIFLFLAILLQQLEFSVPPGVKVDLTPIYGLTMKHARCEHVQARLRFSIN
# [25] = target: T2, hERG (KCNH2); assay: Inhibition of human ERG stably expressed in CHO cells at 3 uM by whole-cell patch clamp method relative to control; assay type: toxicity, cell-based; details: CHO cells stably expressing human ERG
# [26] = Efflux ratio of apparent permeability from basolateral side to apical side over apical side to basolateral side in human Caco-2 cells; assay type: ADME, cell-based
# [27] = Tmax in Sprague-Dawley rat by measuring metabolite 6-methoxybenzofuran-2-carboxylic acid at 10 mg/kg, po; assay type: ADME, organism-based; details: in vivo
# [28] = target: T1, Cytochrome P450 3A4; assay: Inhibition of CYP3A4 (unknown origin) using testosterone as substrate (reference value: 0.0227 uM); assay type: ADME
# [29] = target: Cytochrome P450 2C9 (Homo sapiens, UniProt P11712); assay: Inhibition of CYP2C9 (unknown origin) using tolbutamide as substrate (reference value: 1.9 uM); assay type: ADME
# [30] = species: Danio rerio; assay: Anti osteoporosis activity in prednisone induced wildtype 3 days post-fertilization AB zebrafish osteoporosis model assessed as increase in bone mass; assay type: functional, organism-based; details: dose 0.078-1.25 µM
# [31] = species: Danio rerio; assay: Anti osteoporosis activity in prednisone induced wildtype 3 days post-fertilization AB zebrafish osteoporosis model assessed as increase in osteoblast by measuring fluorescence intensity; assay type: functional, organism-based; details: dose 0.078-1.25 µM
# [32] = AUC (0 to infinity) in Sprague-Dawley rat by measuring metabolite 6-methoxybenzofuran-2-carboxylic acid at 10 mg/kg, po; assay type: ADME, organism-based; set-up: dose 10 mg/kg, route po; details: in vivo
# [33] = MRT (0 to infinity) in Sprague-Dawley rat by measuring metabolite 6-methoxybenzofuran-2-carboxylic acid at 2 mg/kg, iv; assay type: ADME, organism-based; details: in vivo
# [34] = Half life in Sprague-Dawley rat by measuring metabolite 6-methoxybenzofuran-2-carboxylic acid at 2 mg/kg, iv; assay type: ADME, organism-based; details: in vivo
# [35] = target: Cytochrome P450 2D6 (Homo sapiens, UniProt P10635); assay: Inhibition of CYP2D6 (unknown origin) using dextromethorphan as substrate (reference value: 0.0445 uM); assay type: ADME
# Chain of Cytochrome P450 2D6 (P10635 whole entry): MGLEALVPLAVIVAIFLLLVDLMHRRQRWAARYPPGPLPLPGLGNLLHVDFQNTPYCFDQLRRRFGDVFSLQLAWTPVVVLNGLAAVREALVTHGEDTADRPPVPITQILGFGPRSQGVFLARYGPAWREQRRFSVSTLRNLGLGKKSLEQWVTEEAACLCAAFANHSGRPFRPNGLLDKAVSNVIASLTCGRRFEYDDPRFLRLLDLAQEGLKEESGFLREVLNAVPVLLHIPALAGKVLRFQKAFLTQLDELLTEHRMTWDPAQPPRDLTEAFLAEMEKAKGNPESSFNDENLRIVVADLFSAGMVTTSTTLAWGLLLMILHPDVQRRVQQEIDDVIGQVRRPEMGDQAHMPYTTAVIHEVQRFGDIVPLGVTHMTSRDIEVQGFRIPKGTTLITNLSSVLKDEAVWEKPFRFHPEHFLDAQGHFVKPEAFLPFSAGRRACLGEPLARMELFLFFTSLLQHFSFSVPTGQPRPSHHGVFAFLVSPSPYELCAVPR
# T2 sequence (Q12809 whole entry): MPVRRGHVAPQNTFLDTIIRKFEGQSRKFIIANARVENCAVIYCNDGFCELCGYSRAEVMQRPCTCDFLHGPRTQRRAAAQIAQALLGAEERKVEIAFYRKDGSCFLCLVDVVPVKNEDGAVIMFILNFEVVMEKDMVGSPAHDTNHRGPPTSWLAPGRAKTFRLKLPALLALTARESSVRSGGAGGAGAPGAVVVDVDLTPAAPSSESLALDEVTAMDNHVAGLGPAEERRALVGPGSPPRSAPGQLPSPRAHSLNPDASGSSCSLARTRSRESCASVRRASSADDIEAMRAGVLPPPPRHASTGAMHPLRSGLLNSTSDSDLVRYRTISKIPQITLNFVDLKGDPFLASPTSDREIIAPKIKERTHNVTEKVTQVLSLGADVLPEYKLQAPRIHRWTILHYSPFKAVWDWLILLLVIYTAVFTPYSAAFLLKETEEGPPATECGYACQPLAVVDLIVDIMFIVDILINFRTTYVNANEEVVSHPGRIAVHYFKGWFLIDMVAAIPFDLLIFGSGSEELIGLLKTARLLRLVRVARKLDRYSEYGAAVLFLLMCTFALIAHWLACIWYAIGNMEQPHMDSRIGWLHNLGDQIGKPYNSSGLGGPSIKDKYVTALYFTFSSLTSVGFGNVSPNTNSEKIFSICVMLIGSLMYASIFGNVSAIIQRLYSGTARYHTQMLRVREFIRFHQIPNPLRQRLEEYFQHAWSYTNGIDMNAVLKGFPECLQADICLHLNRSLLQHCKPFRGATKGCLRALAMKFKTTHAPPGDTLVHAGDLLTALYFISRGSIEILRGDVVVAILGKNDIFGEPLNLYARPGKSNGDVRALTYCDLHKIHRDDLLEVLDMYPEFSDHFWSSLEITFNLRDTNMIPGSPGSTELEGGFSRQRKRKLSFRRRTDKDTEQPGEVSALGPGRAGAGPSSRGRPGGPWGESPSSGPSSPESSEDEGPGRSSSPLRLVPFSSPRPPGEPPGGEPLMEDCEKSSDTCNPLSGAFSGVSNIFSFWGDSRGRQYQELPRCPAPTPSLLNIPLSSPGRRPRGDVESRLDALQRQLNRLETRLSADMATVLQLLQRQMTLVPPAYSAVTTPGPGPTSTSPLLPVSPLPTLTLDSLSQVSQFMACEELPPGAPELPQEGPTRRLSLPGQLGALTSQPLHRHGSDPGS
# T1 sequence (P08684 whole entry): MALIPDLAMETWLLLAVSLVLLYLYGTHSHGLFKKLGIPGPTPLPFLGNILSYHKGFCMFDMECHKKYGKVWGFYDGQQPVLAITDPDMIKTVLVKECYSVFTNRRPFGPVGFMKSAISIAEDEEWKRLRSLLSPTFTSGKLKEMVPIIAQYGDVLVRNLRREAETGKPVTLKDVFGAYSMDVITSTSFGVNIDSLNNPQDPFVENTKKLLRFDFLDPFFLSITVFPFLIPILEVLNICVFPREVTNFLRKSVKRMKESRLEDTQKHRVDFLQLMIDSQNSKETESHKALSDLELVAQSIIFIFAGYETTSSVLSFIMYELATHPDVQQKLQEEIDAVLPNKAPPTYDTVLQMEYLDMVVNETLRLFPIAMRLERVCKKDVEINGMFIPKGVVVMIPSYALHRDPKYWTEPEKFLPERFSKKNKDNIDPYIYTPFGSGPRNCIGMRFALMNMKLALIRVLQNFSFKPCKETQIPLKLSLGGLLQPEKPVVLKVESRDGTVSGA
# Chain of Cytochrome P450 2C9 (P11712 whole entry): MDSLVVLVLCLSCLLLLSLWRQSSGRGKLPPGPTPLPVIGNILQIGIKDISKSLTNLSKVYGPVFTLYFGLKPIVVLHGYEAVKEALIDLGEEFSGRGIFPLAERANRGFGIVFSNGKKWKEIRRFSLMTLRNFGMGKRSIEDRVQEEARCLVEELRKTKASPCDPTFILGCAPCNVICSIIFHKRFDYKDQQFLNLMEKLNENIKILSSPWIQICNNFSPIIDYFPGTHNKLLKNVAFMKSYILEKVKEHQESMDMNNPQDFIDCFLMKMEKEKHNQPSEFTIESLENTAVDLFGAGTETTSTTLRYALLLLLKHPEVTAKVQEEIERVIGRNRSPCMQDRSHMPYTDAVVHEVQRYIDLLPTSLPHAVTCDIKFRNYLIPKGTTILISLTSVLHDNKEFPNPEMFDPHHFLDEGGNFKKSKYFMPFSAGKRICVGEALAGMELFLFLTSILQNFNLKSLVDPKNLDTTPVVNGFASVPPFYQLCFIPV
# Chain of Cytochrome P450 2C19 (P33261 whole entry): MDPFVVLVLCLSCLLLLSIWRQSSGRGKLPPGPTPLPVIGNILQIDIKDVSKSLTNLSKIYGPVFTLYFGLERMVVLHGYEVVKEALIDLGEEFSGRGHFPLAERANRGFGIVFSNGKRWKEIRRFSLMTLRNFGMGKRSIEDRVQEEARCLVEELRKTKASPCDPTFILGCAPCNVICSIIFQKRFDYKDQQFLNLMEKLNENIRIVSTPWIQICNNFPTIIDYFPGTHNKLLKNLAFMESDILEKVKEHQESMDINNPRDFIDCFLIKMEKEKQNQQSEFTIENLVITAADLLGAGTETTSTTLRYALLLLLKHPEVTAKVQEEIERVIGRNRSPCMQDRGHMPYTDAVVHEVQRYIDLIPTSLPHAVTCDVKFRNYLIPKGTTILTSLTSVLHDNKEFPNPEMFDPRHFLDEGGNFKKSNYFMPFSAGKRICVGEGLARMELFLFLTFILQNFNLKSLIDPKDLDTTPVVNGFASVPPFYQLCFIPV
smiles,measurement,setting,value
COc1ccc2cc(C(=O)NCCN3CCCC3)oc2c1,Flu intensity,[1],20961
COc1ccc2cc(C(=O)NCCCCN(C)C)oc2c1,Flu intensity,[1],25439
COc1ccc2cc(C(=O)N[C@H](C)C(=O)O)oc2c1,Flu intensity,[1],17768
CCN(CC)CCCNC(=O)c1cc2ccc(OC)cc2o1,Flu intensity,[1],31394
same,Activity,[2],Active
COc1ccc2cc(C(=O)N3CCC(c4ccc(F)cc4)CC3)oc2c1,Flu intensity,[1],13963
COc1ccc2cc(C(=O)NCCCN(C)C)oc2c1,Flu intensity,[1],18114
COc1ccc2cc(C(=O)OCCN3CCOCC3)oc2c1,t1/2,[3],3.07 h
same,AUC,[4],4557 ng·h/mL
same,IC50,[5],> 25 µM
same,Cmax,[6],10380 ng/mL
same,recovery at 1.583 h,[7],22.7%
same,MRT,[8],2.26 h
same,IC50,[9],> 25 µM
same,Activity,[10],Dose-Dependent Effect
same,Vdss,[11],0.545 L/kg
same,inhibition at 10 µM,[12],20.6%
same,AUC,[13],4635 ng·h/mL
same,Papp A→B at 1.583 h,[14],3.35 ×10⁻⁶ cm/s
same,inhibition at 1 µM,[15],6.15%
same,inhibition at 0.3 µM,[16],2.36%
same,AUCt,[17],25724 ng·h/mL
same,recovery at 1.583 h,[18],74.3%
same,Cmax,[19],3943 ng/mL
same,F,[20],113%
same,Flu intensity,[1],33746
same,Activity,[21],Active
same,Papp B→A at 1.583 h,[22],5.53 ×10⁻⁶ cm/s
same,inhibition at 0.1 µM,[23],4.69%
same,IC50,[24],17 µM
same,inhibition at 3 µM,[25],9.81%
same,efflux ratio,[26],1.65
same,Tmax,[27],0.25 h
same,IC50,[28],> 25 µM
same,IC50,[29],> 25 µM
same,Activity,[30],Dose-Dependent Effect
same,Activity,[31],Dose-Dependent Effect
same,AUCt,[32],25873 ng·h/mL
same,MRT,[33],1.25 h
same,t1/2,[34],2.15 h
same,Activity,[2],Active
same,IC50,[35],> 25 µM
COc1ccc2cc(C(=O)NCC(=O)OCCN(C)C)oc2c1,Flu intensity,[1],26758
CC(O)(P(=O)([O-])O)P(=O)([O-])O.[Na+].[Na+] [ETIDRONATE DISODIUM],Flu intensity,[1],23897
CCN(CC)CCCCNC(=O)c1cc2ccc(OC)cc2o1,Flu intensity,[1],21289
COc1ccc2cc(C(=O)OCCN3CCCC3)oc2c1,Flu intensity,[1],24697
COc1ccc2cc(C(=O)N[C@H](Cc3ccccc3)C(=O)O)oc2c1,Flu intensity,[1],27422
COc1ccc2cc(C(=O)OCCN3CCN(C)CC3)oc2c1,Flu intensity,[1],23765
COc1ccc2cc(C(=O)NCC(=O)NCCN3CCCC3)oc2c1,Flu intensity,[1],21953
COc1cc(N)c(Cl)cc1C(=O)NC1CCN(CCCOc2ccc(F)cc2)CC1OC (stereo not given) [CISAPRIDE],inhibition at 0.3 µM,[16],98.2%
